Results published in patent publication US20020142347A1, “Biosensor” (BIOSENSOR ApS, priority 2000, published 2002).
Like-named read-outs stand apart in the source and are kept apart here.

What was measured:
native bovine ACBP = biological target: T1, native bovine ACBP (Bos taurus, UniProt P07107); details: isothermal titration microcalorimetry, >0.1 M salt; literature; read-out: KD for binding to native bovine ACBP; cited from earlier work
T1 sequence (P07107 1-87): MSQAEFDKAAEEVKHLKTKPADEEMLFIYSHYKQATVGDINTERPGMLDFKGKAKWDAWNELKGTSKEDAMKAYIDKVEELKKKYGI

FACI-24 [1] = biological target: T2, FACI-24 (Bos taurus, UniProt P07107, M25C); test: Fluorescence emission change of FACI-24 on titration with CoA and acyl-CoA esters; format: binding, bovine; details: emission maximum without ligand 510 nm; excitation 400 nm
T2 construct: made in house; host or cells: E. coli BL21(DE3)pLysS, pET3a vector
T2 sequence (P07107 2-87 M25C): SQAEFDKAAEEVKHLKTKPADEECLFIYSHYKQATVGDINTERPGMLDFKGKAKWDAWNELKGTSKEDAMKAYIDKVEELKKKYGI
Method: (§1) Quantitative determination of binding affinities (KD) were performed by isothermal titration micro calorimetry as previously described (Faergeman et. al., 1996; Biochemistry 35, 14118-14126). Qualitative evaluation of relative binding affinities were determined by isoelectrical focusing using the Pharmacia Fast Gel system according to the prescriptions given by the manufacture. Fluorescence emission changes induced by acyl-CoA binding to badan modified protein were determined as follows: 5 μl portions of acyl-CoAs were added from stock solutions disolved in binding buffer, (10 mM Hepes, 150 mM NaCL, 1 mM NaHPO4, pH 7.4) containing 3.4 μM Badan derivatized protein to a 1 ml 3.4 μM solution of the Badan derivatized ACBP in the same buffer. The fluorescence emission was measured on a SPEX FLOUROLOG (Industries Inc, Edison N.J., USA) with excitation at 400 nm and emission scan from 400 nm to 550 nm. The concentration of acyl-CoA in the aqueous phase was determined from the fluorescence emission sensitivities at 495 and 470 nm repectively essentially by the method described by (Grynkiewickz et. al.,1985, J. Biol. Chem. 260, 3440-3450) according to which:
(§2) Fluorescence titration emission spectra from 415 nm to 550 nm (excitation at 400 nm) were performed for CoA, C4:0-, C8:0-, C12:0-, C16:0-, and C20:0-CoA with all four mutated and badan modified proteins.
The emission maximum of FACI-24 without ligand added was 510 nm and titration with CoA, C4:0-, C8:0-, C12:0-, […], C16:0- and C20:0-CoA caused 0, 16, 34, 42, 46 and 46 nm downshift in emission maximum, respectively (results not shown). C16:0-CoA induced a 5,5 fold increase in emission at 464 nm (FIG. 10).
(§3) Titration of FACI with acyl-CoAs was done using a SPEX FLOUROLOG (Industries Inc, Edison N.J., USA) with excitation at 387 nm and emission at 460 nm, with both excitation and emission slits set to 4.5 nm. FACI (0.5-4.5 uM, as indicated) was dissolved in 1.5 ml binding buffer (10 mM HEPES 150 mM NaCl, 5 mM KCl, 1 mM Na2HPO4, pH 7.4) and titrated with a 10 μM acyl-CoA dissolved in binding buffer, with or without FACI added, as indicated. Fluorescence emission values (counts per second) measured without FACI added to the ligand stock solution were corrected for titrand dilution.

M24C-badan ACBP = biological target: T3, M24C-badan ACBP (Bos taurus, UniProt P07107, M25C); test: Isothermal titration micro calorimetry of acyl-CoA binding to M24C-badan ACBP; parameters: species or system bovine; details: isotermal titration micro calorimetry
T3 construct: made in house; host or cells: E. coli BL21(DE3)pLysS, pET3a vector
T3 sequence (P07107 2-87 M25C): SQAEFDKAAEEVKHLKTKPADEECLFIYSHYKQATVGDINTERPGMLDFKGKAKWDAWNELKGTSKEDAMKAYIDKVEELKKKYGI
Method: as §1, with “which: […]” for “which:”

FACI53 = biological target: T4, FACI53 (Bos taurus, UniProt P07107, A54C); test: Fluorescence emission change of FACI-53 on titration with CoA and acyl-CoA esters; format: binding, bovine
T4 construct: badan (6-bromoacetyl-2-dimethylaminonaphthalene) fluorophore on the introduced Cys-53; made in house; host or cells: E. coli BL21(DE3)pLysS, pET3a vector
T4 sequence (P07107 2-87 A54C): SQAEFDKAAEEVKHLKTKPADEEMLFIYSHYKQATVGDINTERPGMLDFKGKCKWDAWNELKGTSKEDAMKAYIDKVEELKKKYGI
Method: as §1, §2
Titration of FACI-53 dissolved in binding buffer with the above mentioned acyl-CoA esters produced a smooth downward shift in fluorescence emission maximum from 525 nm when no ligand was present to 508, 503, 490, 492, 496 and 514 with increasing concentrations of CoA, C4:0-, C8:0-, C12:0-, C16:0- and C20:0-CoA respectively.

FACI-24 [2] = biological target: T2, FACI-24; test: Fluorescence titration equilibrium binding analysis of CoA and acyl-CoA esters to FACI-24; parameters: species or system bovine; details: FACI-24 (1.5 μM) titrated with increasing CoA and acyl-CoA concentration; fitted binding curves, emission 460 nm; read-out: Kd (nM) ± S.E.
Method: Development of a mathematical expression describing the relationship between acyl-CoA concentration and FACI-24 fluorescence was performed essentially as by Richieri et al 1992, J Biol Chem, 267:23495-23501. However, where ligand binding to ADIFAB induces both a fluorescence intensity increase around 505 nm and a fluorescence intensity decrease around 432 nm, ligand binding to FACI-24 only causes an increase in fluorescence around 460 nm.
Derivatisation of an expression for the fluorescence value as a function of the acyl-coA concentration was done using the Scatchard equation as a starting point: [formula]
which has been used to fit the titration data.
The curves represent the best fit analysis from two independent experiment calculated and normalized as described above. The FACI-24 binding affinity increases dramatically when the acyl-chain length increases from C8 to C10 and C12, a smaller but significant drop in Kd is seen by increasing chain length from C12 to C14. C14 to C18 saturated acyl-CoA esters and C18:1-CoA binds with similar and very high affinities to FACI-24. In >0.1 M salt, FACI-24 binds acyl-CoAs with higher affinity and similar specificity as native unmodified bovine ACBP. The Kd for binding of C12-CoA and C16-CoA to native ACBP is 40 and 2.0 nM, respectively (Fulcery et al Biochemical, 1997, 325:423-428; Færgeman et al 1996, Biochemistry, 35:14118-14126). FACI-24 is highly specific for binding long-chain acyl-CoA esters.
as §3
Up to four parameters were fitted in this way, these were B, representing the point of saturation on the X axis, H, representing the maximum fluorescence, i.e. the fluorescence at saturating concentration of acyl-CoA, L, the minimum fluorescence value, i.e. the fluorescence of FACI-24 alone in buffer, and K, the Kd value lor the acyl-CoA in question. Initial estimates for the fittable parameters were typically: B=1, H=maximum fluorescence value measured, L=minimum fluorescence value measured (at acyl-CoA-concentration=0), and K as judged from the raw data, typically from 0.0001 uM to 0.1 uM for acyl-CoA longer than C10:0-CoA.
For each acyl-CoA at least two titrations and fittings were performed. To consider two or more titrations of the same acyl-CoA together and obtain a Kd value using all these titrations, both axes of the raw data were standardised using the fitted values of B, H and L in this way:
X axis standard=(raw X axis values)/Bfitted
Y axis standard=[(raw Y axis values)−Lfitted]/[Hfitted−Lfitted]
In this way all Y axis values should come to lie between 0 and 1 and the X axis value should be 1 at the point of saturation (FACI-24:acyl-CoA 1:1). Such adjusted data were pooled and fitted using DataFit. Typically, both H and B fitted to values close to 1 and L fitted to values close to 0. K was typically fitted to values somewhere between the two values obtained for the raw data.
This could be overcome by removing B from the fittable parameters list and instead setting it to a constant value of 1 and fitting again. This was typically done for both the raw and the standardised data.

[3] = Fluorescence response of the Phe-49_Cys49 badan derivative of bovine ACBP to ligands; format: binding; details: badan group exposed to the environment
Method: Reference is made to FIG. 2. and FIG. 3. which depict the emission spectra of FACI24 and FACI53 titrated with increasing concentrations of CoA, C4-, C8-, C12-, C16- and C20-CoA esters. The addition of ligand and measurement of emission of FACI24 and FACI53 was performed as described in example 2. The increased addition of ligand to the mutated and modified proteins caused a proportional spectral change. The normal physiological binding profile was confirmed by direct binding studies using isoelectrical focusing as predicted in FIG. 4. […] The results clearly indicate that fluorescence emission at 470 nm may provide a measure for the concentration of free unbound long-chain(>C12)-acyl-CoA ester.
The two sensors presented herein together act as high sensitivity sensors in the chain length range from C8-CoA to C20-CoA. […]
Quantitative determination of binding affinities (KD) were performed by isothermal titration micro calorimetry as previously described (Faergeman et. al., 1996; Biochemistry 35, 14118-14126). Qualitative evaluation of relative binding affinities were determined by isoelectrical focusing using the Pharmacia Fast Gel system according to the prescriptions given by the manufacture. […] The fluorescence emission was measured on a SPEX FLOUROLOG (Industries Inc, Edison N.J., USA) with excitation at 400 nm and emission scan from 400 nm to 550 nm. […]

[4] = Fluorescence titration emission spectra of FACI-46 (negative control); format: binding
Description: The strategy behind the design of the mutants was based on the tertiary structure of the bovine ACBP/acyl-CoA complex. Both Met-24 and Ala-53 interact directly with the acyl-chain of the acyl-CoA ligand, interacting with the omega-methyl group of long acyl-chains. Positioning of an environmentally sensitive group in one of these positions would therefore be expected to create ligand sensitive probes. Met-46 which is located outside the hydrophobic binding pocket in the loop between helix 2 and 3 was chosen to serve as a negative control which should not be sensitive to ligand binding.
as §2

CCCCCCCCCCCC(=O)SCCNC(=O)CCNC(=O)[C@H](O)C(C)(C)COP(=O)(O)OP(=O)(O)OC[C@H]1O[C@@H](n2cnc3c(N)ncnc32)[C@H](O)[C@@H]1OP(=O)(O)O [C12:0-CoA, dodecanoyl-CoA]
Kd (native bovine ACBP): 40 nM
Downshift in emission maximum of FACI-24 (FACI-24 [1]): 42 nm
Kd (M24C-badan ACBP): 40 nM
Magnitude of emission of FACI-53, fold increase (FACI53): 2.7 fold
Fluorescence emission maximum of FACI-53 with ligand (FACI53; 525 nm when no ligand present, excitation 400 nm): 492 nm
Relative emission of FACI-53 at 495 nm, fold increase (FACI53; emission at 495 nm): 4.7 fold
Kd (FACI-24 [2]): 10.2 ± 0.81 nM

B1: Phe-49_Cys49 badan derivative of bovine ACBP: Phe49 to Cys mutant of bovine ACBP labelled with badan, badan group exposed to the environment (conjugate, UniProt P07107 2-87, looked up, variant F49C)
Acyl-CoA-binding protein: SQAEFDKAAEEVKHLKTKPADEEMLFIYSHYKQATVGDINTERPGMLDCKGKAKWDAWNELKGTSKEDAMKAYIDKVEELKKKYGI
modifications: badan label
notes: Phe49 to Cys mutant of bovine ACBP labelled with badan, badan group exposed to the environment
Fluorescence response to addition of ligands [3]: did not respond to addition of any of the ligands

B2: FACI-46: badan derivative of M46C-bovine ACBP, negative control (conjugate, UniProt P07107 2-87, looked up, variant M46C)
Acyl-CoA-binding protein: SQAEFDKAAEEVKHLKTKPADEEMLFIYSHYKQATVGDINTERPGCLDFKGKAKWDAWNELKGTSKEDAMKAYIDKVEELKKKYGI
modifications: badan label
notes: badan derivative of M46C-bovine ACBP, negative control
Emission spectra changes of FACI-46 with ligands (words) [4]: did not show any emission spectra changes with any of the ligands
Emission spectra changes of FACI-46 with ligands (words) ([4]; listed as FACI46): did not show changes in emission spectra with any of the tested ligands
